From PubChem BioAssay (NCI)
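How tested: cells in 96-well plates exposed to compound for 48 hours at five concentrations. Here, GI50 denotes the concentration required for 50% inhibition of growth. The concentration for full growth arrest is given as TGI.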

Tests used:
Experiment in all cases: NCI tumour cell line growth inhibition, 48 h
[1] = system: SK-MEL-2 melanoma
[2] = system: NCI-H460 lung
[3] = system: SK-MEL-5 melanoma
[4] = system: NCI-H226 lung
[5] = system: TK-10 renal
[6] = system: T-47D breast
[7] = system: CAKI-1 renal
[8] = system: UACC-62 melanoma
[9] = system: EKVX NSCLC
[10] = system: OVCAR-5 ovarian
[11] = system: SN12C renal
[12] = system: U251 CNS
[13] = system: OVCAR-8 ovarian
[14] = system: NCI/ADR-RES ovarian
[15] = system: ACHN renal
[16] = system: RPMI-8226 leukemia
[17] = system: SF-295 CNS
[18] = system: SF-268 CNS
[19] = system: HCT-116 colon
[20] = system: OVCAR-4 ovarian
[21] = system: 786-0 renal
[22] = system: NCI-H522 lung
[23] = system: COLO 205 colon
[24] = system: A549 NSCLC
[25] = system: UO-31 renal
[26] = system: HCC-2998 colon
[27] = system: HCT-15 colon
[28] = system: HT29 colon
[29] = system: A498 renal
[30] = system: HS 578T breast
[31] = system: MCF7 breast
[32] = system: K-562 leukemia
[33] = system: CCRF-CEM leukemia
[34] = system: NCI-H23 lung
[35] = system: SR leukemia
[36] = system: UACC-257 melanoma
[37] = system: MALME-3M melanoma
[38] = system: BT-549 breast
[39] = system: KM12 colon
[40] = system: RXF 393 renal
[41] = system: SF-539 CNS
[42] = system: SK-OV-3 ovarian
[43] = system: IGROV1 ovarian
[44] = system: HOP-62 NSCLC
[45] = system: SNB-19 CNS
[46] = system: PC-3 prostate
[47] = system: HL-60(TB) leukemia
[48] = system: SW-620 colon
[49] = system: HOP-92 NSCLC
[50] = system: MOLT-4 leukemia
[51] = system: LOX IMVI melanoma
[52] = system: MDA-MB-231 breast
[53] = system: SNB-75 CNS
[54] = system: OVCAR-3 ovarian
[55] = system: M14 melanoma
[56] = system: DU-145 prostate
[57] = system: SK-MEL-28 melanoma

COc1cc2ncn(-c3cc(O[C@H](C)c4ccccc4Cl)c(C(N)=O)s3)c2cc1OC
GI50 [1]: 0.00679 µM | TGI [1]: 5.02 µM | GI50 [2]: 0.00955 µM | TGI [2]: 1.24 µM | GI50 [3]: 0.00912 µM | TGI [3]: 1.08 µM | GI50 [4]: 0.228 µM | TGI [4]: 6.99 µM | GI50 [5]: 0.414 µM | TGI [5]: 4.45 µM | GI50 [6]: 0.146 µM | TGI [6]: 7.76 µM | GI50 [7]: 0.0999 µM | TGI [7]: 20.8 µM | GI50 [8]: 0.154 µM | TGI [8]: 7.43 µM | GI50 [9]: 0.0872 µM | TGI [9]: > 25 µM | GI50 [10]: 0.0139 µM | TGI [10]: > 23.8 µM | GI50 [11]: 0.0692 µM | TGI [11]: > 21.5 µM | GI50 [12]: 0.0161 µM | TGI [12]: > 25 µM | GI50 [13]: 0.0114 µM | TGI [13]: 11.8 µM | GI50 [14]: 0.00812 µM | TGI [14]: 8.72 µM | GI50 [15]: 1.04 µM | TGI [15]: > 25 µM | GI50 [16]: 0.0102 µM | TGI [16]: 3.99 µM | GI50 [17]: 0.0127 µM | TGI [17]: > 25 µM | GI50 [18]: 0.016 µM | TGI [18]: 20.1 µM | GI50 [19]: 0.0102 µM | TGI [19]: 6.44 µM | GI50 [20]: 3.67 µM | TGI [20]: > 25 µM | GI50 [21]: 0.0412 µM | TGI [21]: 3.11 µM | GI50 [22]: 0.00656 µM | TGI [22]: 2.84 µM | GI50 [23]: 0.00544 µM | TGI [23]: 4.58 µM | GI50 [24]: 0.014 µM | TGI [24]: > 14.4 µM | GI50 [25]: 0.482 µM | TGI [25]: 12.1 µM | GI50 [26]: 0.0148 µM | TGI [26]: 6.18 µM | GI50 [27]: 0.0107 µM | TGI [27]: > 25 µM | GI50 [28]: 0.00432 µM | TGI [28]: 4.26 µM | GI50 [29]: 0.0121 µM | TGI [29]: 0.194 µM | GI50 [30]: 0.0652 µM | TGI [30]: 0.804 µM | GI50 [31]: 0.00431 µM | TGI [31]: 5.6 µM | GI50 [32]: 0.00874 µM | TGI [32]: > 25 µM | GI50 [33]: 0.0025 µM | TGI [33]: 13.1 µM | GI50 [34]: 0.01 µM | TGI [34]: 4.39 µM | GI50 [35]: 0.00792 µM | TGI [35]: > 6.4 µM | GI50 [36]: 2.93 µM | TGI [36]: 15.4 µM | GI50 [37]: 1.71 µM | TGI [37]: 12.3 µM | GI50 [38]: 0.0888 µM | TGI [38]: 4.44 µM | GI50 [39]: 0.00728 µM | TGI [39]: 3.86 µM | GI50 [40]: 0.00947 µM | TGI [40]: 3.53 µM | GI50 [41]: 0.0109 µM | TGI [41]: 2.74 µM | GI50 [42]: 0.0097 µM | TGI [42]: 12.7 µM | GI50 [43]: 0.0197 µM | TGI [43]: 12.9 µM | GI50 [44]: 0.0158 µM | TGI [44]: > 25 µM | GI50 [45]: 0.0225 µM | TGI [45]: > 25 µM | GI50 [46]: 0.0141 µM | TGI [46]: > 25 µM | GI50 [47]: 0.00681 µM | TGI [47]: 3.89 µM | GI50 [48]: 0.0055 µM | TGI [48]: 5.57 µM | GI50 [49]: 0.489 µM | TGI [49]: 7.47 µM | GI50 [50]: 0.00979 µM | TGI [50]: 3.76 µM | GI50 [51]: 0.0105 µM | TGI [51]: 4.37 µM | GI50 [52]: 0.021 µM | TGI [52]: > 25 µM | GI50 [53]: 0.0238 µM | TGI [53]: 3.59 µM | GI50 [54]: 0.00664 µM | TGI [54]: 2.15 µM

COc1ccc2[nH]c(-c3ccccc3)c(/C=C(\C#N)S(=O)(=O)c3ccccc3)c2c1
GI50 [55]: 3.72 µM | TGI [55]: > 100 µM | GI50 [1]: 3.7 µM | TGI [1]: 20.3 µM | GI50 [2]: 4.55 µM | TGI [2]: > 100 µM | GI50 [3]: 3.05 µM | TGI [3]: 29.3 µM | GI50 [4]: 9.41 µM | TGI [4]: > 100 µM | GI50 [5]: 17.5 µM | TGI [5]: > 100 µM | GI50 [6]: 5.18 µM | TGI [6]: > 100 µM | GI50 [7]: 4.47 µM | TGI [7]: 43.4 µM | GI50 [8]: 3.83 µM | TGI [8]: 60.7 µM | GI50 [9]: 6.86 µM | TGI [9]: > 100 µM | GI50 [10]: 37.3 µM | TGI [10]: > 100 µM | GI50 [11]: 7.76 µM | TGI [11]: > 100 µM | GI50 [12]: 4.59 µM | TGI [12]: > 100 µM | GI50 [13]: 7.96 µM | TGI [13]: > 100 µM | GI50 [14]: 3.83 µM | TGI [14]: > 100 µM | GI50 [15]: 12.9 µM | TGI [15]: > 100 µM | GI50 [17]: 2.79 µM | TGI [17]: 28.7 µM | GI50 [18]: 13.3 µM | TGI [18]: > 100 µM | GI50 [19]: 3.74 µM | TGI [19]: > 100 µM | GI50 [20]: 8.33 µM | TGI [20]: > 100 µM | GI50 [21]: 6.07 µM | TGI [21]: > 100 µM | GI50 [56]: 10.1 µM | TGI [56]: > 100 µM | GI50 [22]: 3.98 µM | TGI [22]: 46.7 µM | GI50 [23]: 7.35 µM | TGI [23]: > 100 µM | GI50 [24]: 5.98 µM | TGI [24]: > 100 µM | GI50 [25]: 4.03 µM | TGI [25]: 34.5 µM | GI50 [57]: 6.05 µM | TGI [57]: > 100 µM | GI50 [26]: 18.7 µM | TGI [26]: > 100 µM | GI50 [27]: 4.02 µM | TGI [27]: > 100 µM | GI50 [28]: 3.49 µM | TGI [28]: > 100 µM | GI50 [29]: 9.31 µM | TGI [29]: 44.6 µM | GI50 [30]: 7.59 µM | TGI [30]: 85.5 µM | GI50 [31]: 3.93 µM | TGI [31]: > 100 µM | GI50 [32]: 1.42 µM | TGI [32]: > 100 µM | GI50 [33]: 6.52 µM | TGI [33]: > 100 µM | GI50 [34]: 7.97 µM | TGI [34]: > 100 µM | GI50 [35]: 2.21 µM | TGI [35]: 15.7 µM | GI50 [36]: 4.92 µM | TGI [36]: 69 µM | GI50 [37]: 19.4 µM | TGI [37]: > 100 µM | GI50 [38]: 11.6 µM | TGI [38]: > 100 µM | GI50 [39]: 2.96 µM | TGI [39]: > 100 µM | GI50 [41]: 5.48 µM | TGI [41]: 34.7 µM | GI50 [42]: 7.05 µM | TGI [42]: 66.7 µM | GI50 [43]: 4.79 µM | TGI [43]: 25.5 µM | GI50 [44]: 8.38 µM | TGI [44]: > 100 µM | GI50 [45]: 13.5 µM | TGI [45]: > 100 µM | GI50 [46]: 8.3 µM | TGI [46]: > 100 µM | GI50 [47]: 2.38 µM | TGI [47]: 7.11 µM | GI50 [48]: 3.97 µM | TGI [48]: > 100 µM | GI50 [49]: 6.05 µM | TGI [49]: 36.3 µM | GI50 [50]: 4.7 µM | TGI [50]: > 100 µM | GI50 [51]: 7.4 µM | TGI [51]: > 100 µM | GI50 [52]: 7.48 µM | TGI [52]: > 100 µM | GI50 [53]: 5.92 µM | TGI [53]: 44.8 µM | GI50 [54]: 4.96 µM | TGI [54]: 24.4 µM

CCOC(=O)Nn1c(C)nnc1CC#N
TGI [55]: > 100 µM | TGI [1]: > 100 µM | TGI [2]: > 100 µM | TGI [3]: > 100 µM | TGI [4]: > 100 µM | TGI [5]: > 100 µM | TGI [6]: > 100 µM | TGI [7]: > 100 µM | TGI [8]: > 100 µM | TGI [10]: > 100 µM | TGI [11]: > 100 µM | TGI [12]: > 100 µM | TGI [13]: > 100 µM | TGI [14]: > 100 µM | TGI [15]: > 100 µM | TGI [16]: > 100 µM | TGI [17]: > 100 µM | TGI [18]: > 100 µM | TGI [19]: > 100 µM | TGI [21]: > 100 µM | TGI [56]: > 100 µM | TGI [22]: > 100 µM | TGI [24]: > 100 µM | TGI [25]: > 100 µM | TGI [57]: > 100 µM | TGI [26]: > 100 µM | TGI [27]: > 100 µM | TGI [28]: > 100 µM | TGI [30]: > 100 µM | TGI [31]: > 100 µM | TGI [32]: > 100 µM | TGI [34]: > 100 µM | TGI [35]: > 100 µM | TGI [36]: > 100 µM | TGI [37]: > 100 µM | TGI [38]: > 100 µM | TGI [39]: > 100 µM | TGI [40]: > 100 µM | TGI [41]: > 100 µM | TGI [43]: > 100 µM | TGI [44]: > 100 µM | TGI [45]: > 100 µM | TGI [46]: > 100 µM | TGI [47]: > 100 µM | TGI [48]: > 100 µM | TGI [49]: > 100 µM | TGI [50]: > 100 µM | TGI [51]: > 100 µM | TGI [52]: > 100 µM | TGI [53]: > 100 µM | TGI [54]: > 100 µM
